According to ChEMBL document CHEMBL4406836, “The design of a cell-selective fowlicidin-1-derived peptide with both antimicrobial and anti-inflammatory activities” (Eur J Med Chem, 2019):
Activity calls are given as the source filed them. The calls are words filed in the database; no cut-off is given here.

Experiments:
[1] = test system: Staphylococcus aureus; assay: Antibacterial activity against Staphylococcus aureus KCTC 1621 assessed as reduction in bacterial growth incubated for 18 hrs in presence of 20% human serum by spectrophotometry based microtiter broth dilution method; type: functional; conditions: KCTC 1621, 18 h
[2] = test system: Escherichia coli; assay: Antibacterial activity against Escherichia coli KCTC 1682 assessed as reduction in bacterial growth incubated for 18 hrs in presence of 20 % human serum by spectrophotometry based microtiter broth dilution method; type: functional; conditions: KCTC 1682, 18 h
[3] = test system: RAW264.7; assay: Antiinflammatory activity in mouse RAW264.7 cells assessed as reduction in LPS-induced NO production at 10 uM incubated for 48 hrs by Griess reagent based assay; type: functional, cell-based
[4] = test system: Staphylococcus aureus; assay: Antibacterial activity against Staphylococcus aureus KCTC 1621 assessed as reduction in bacterial growth incubated for 18 hrs in presence of 1 mM MgCl2 by spectrophotometry based microtiter broth dilution method; type: functional; conditions: KCTC 1621, 18 h
[5] = test system: Escherichia coli; assay: Antibacterial activity against Escherichia coli KCTC 1682 assessed as reduction in bacterial growth incubated for 18 hrs in presence of 4.5 mM KCl by spectrophotometry based microtiter broth dilution method; type: functional; conditions: KCTC 1682, 18 h
[6] = test system: Staphylococcus aureus; assay: Antibacterial activity against Staphylococcus aureus KCTC 1621 assessed as reduction in bacterial growth incubated for 18 hrs by spectrophotometry based microtiter broth dilution method; type: functional; conditions: KCTC 1621, 18 h
[7] = test system: Enterococcus faecium; assay: Potency index, ratio of MIC of LL-37 to MIC of compound for antibacterial activity against vancomycin-resistant Enterococcus faecium ATCC 51559 assessed as reduction in bacterial growth incubated for 18 hrs by spectrophotometry based microtiter broth dilution method; type: functional
[8] = test system: Escherichia coli; assay: Antibacterial activity against Escherichia coli KCTC 1682 assessed as reduction in bacterial growth incubated for 18 hrs in presence of 6 uM NH4Cl by spectrophotometry based microtiter broth dilution method; type: functional; conditions: KCTC 1682, 18 h
[9] = test system: Pseudomonas aeruginosa; assay: Antibacterial activity against Pseudomonas aeruginosa KCTC 1637 assessed as reduction in bacterial growth incubated for 18 hrs by spectrophotometry based microtiter broth dilution method; type: functional; conditions: KCTC 1637, 18 h
[10] = test system: RAW264.7; assay: Antiinflammatory activity in mouse RAW264.7 cells assessed as reduction in LPS-induced TNFalpha release at 8 uM preincubated for 1 hr followed by LPS-challenge and measured after 6 hrs by ELISA relative to control; type: functional
[11] = test system: Staphylococcus aureus; assay: Potency index, ratio of MIC of melittin to MIC of compound for antibacterial activity against methicillin-resistant Staphylococcus aureus CCARM 3089 assessed as reduction in bacterial growth incubated for 18 hrs by spectrophotometry based microtiter broth dilution method; type: functional
[12] = test system: Erythrocyte; assay: Hemolytic activity in sheep RBC assessed as minimal hemolytic concentration causing 10% hemolysis incubated for 2 hrs by ELISA; type: ADME, cell-based, Ovis aries
[13] = Therapeutic index, ratio of MHC10 for hemolytic activity in sheep RBC assessed as minimal hemolytic concentration causing 10% hemolysis to MIC for antibacterial activity; type: toxicity; conditions: sheep red blood cells
[14] = test system: Staphylococcus aureus; assay: Antibacterial activity against methicillin-resistant Staphylococcus aureus CCARM 3089 assessed as reduction in bacterial growth at 4 uM incubated for 72 hrs in presence of oxacillin by spectrophotometry; type: functional; conditions: CCARM 3089, 72 h
[15] = test system: Escherichia coli; assay: Antibacterial activity against Escherichia coli KCTC 1682 assessed as reduction in bacterial growth incubated for 18 hrs by spectrophotometry based microtiter broth dilution method; type: functional; conditions: KCTC 1682, 18 h
[16] = test system: Enterococcus faecium; assay: Potency index, ratio of MIC of melittin to MIC of compound for antibacterial activity against vancomycin-resistant Enterococcus faecium ATCC 51559 assessed as reduction in bacterial growth incubated for 18 hrs by spectrophotometry based microtiter broth dilution method; type: functional
[17] = test system: Escherichia coli; assay: Antibacterial activity against Escherichia coli KCTC 1682 assessed as reduction in bacterial growth incubated for 18 hrs in presence of 4 uM FeCl3 by spectrophotometry based microtiter broth dilution method; type: functional; conditions: KCTC 1682, 18 h
[18] = test system: Staphylococcus aureus; assay: Potency index, ratio of MIC of LL-37 to MIC of compound for antibacterial activity against methicillin-resistant Staphylococcus aureus CCARM 3095 assessed as reduction in bacterial growth incubated for 18 hrs by spectrophotometry based microtiter broth dilution method; type: functional
[19] = test system: Lipopolysaccharide (LPS); assay: Displacement of BODIPY-TR-cadaverine from Escherichia coli O111:B4 LPS at 16 uM by fluorescence spectrophotometry relative to control
[20] = test system: Escherichia coli; assay: Antibacterial activity against Escherichia coli KCTC 1682 assessed as reduction in bacterial growth incubated for 18 hrs in presence of 150 mM NaCl by spectrophotometry based microtiter broth dilution method; type: functional; conditions: KCTC 1682, 18 h
[21] = test system: Bacillus subtilis; assay: Antibacterial activity against Bacillus subtilis KCTC 3068 assessed as reduction in bacterial growth incubated for 18 hrs by spectrophotometry based microtiter broth dilution method; type: functional; conditions: KCTC 3068, 18 h
[22] = test system: Pseudomonas aeruginosa; assay: Potency index, ratio of MIC of LL-37 to MIC of compound for antibacterial activity against multidrug-resistant Pseudomonas aeruginosa CCARM 2109 assessed as reduction in bacterial growth incubated for 18 hrs by spectrophotometry based microtiter broth dilution method; type: functional
[23] = test system: Pseudomonas aeruginosa; assay: Antibacterial activity against multidrug-resistant Pseudomonas aeruginosa CCARM 2095 assessed as reduction in bacterial growth at 4 uM incubated for 72 hrs in presence of ciprofloxacin by spectrophotometry; type: functional; conditions: CCARM 2095, 72 h
[24] = test system: Staphylococcus aureus; assay: Antibacterial activity against methicillin-resistant Staphylococcus aureus CCARM 3089 assessed as reduction in bacterial growth at 8 uM incubated for 72 hrs in presence of chloramphenicol by spectrophotometry; type: functional; conditions: CCARM 3089, 72 h

**Q.** Which MIC [1] does the source give for H-LVIRWVRAGYKLYRAIKKK-NH2 here?
**A.** The MIC was 4 µM.

**Q.** What about the MIC [2] of the same molecule?
**A.** Its MIC is 8 µM.

**Q.** And the Activity [3]?
**A.** Its Activity is “Active”.

**Q.** What about the MIC [4] of the same molecule?
**A.** Its MIC is 4 µM.

**Q.** What about the MIC [5] of the same molecule?
**A.** The MIC was 4 µM.

**Q.** And the MIC [6]?
**A.** Its MIC is 2 µM.

**Q.** What about the Ratio [7] of the same molecule?
**A.** Its Ratio is 2 - 8.

**Q.** What about the MIC [8] of the same molecule?
**A.** Its MIC is 4 µM.

**Q.** What about the MIC [9] of the same molecule?
**A.** Its MIC is 8 µM.

**Q.** And the inhibition at 8 µM [10]?
**A.** The inhibition at 8 µM was 75.2%.

**Q.** And the Ratio [11]?
**A.** The Ratio was 2 - 8.

**Q.** What about the MHC10 [12] of the same molecule?
**A.** Its MHC10 is 105 µM.

**Q.** And the selectivity ratio [13]?
**A.** Its selectivity ratio is 28.4.

**Q.** What about the MIC [14] of the same molecule?
**A.** Its MIC is 1 µM.

**Q.** What about the MIC [15] of the same molecule?
**A.** The MIC was 4 µM.

**Q.** What about the Ratio [16] of the same molecule?
**A.** The Ratio was 2 - 8.

**Q.** What about the MIC [17] of the same molecule?
**A.** Its MIC is 4 µM.

**Q.** What about the Ratio [18] of the same molecule?
**A.** The Ratio was 2 - 8.

**Q.** And the inhibition [19]?
**A.** Its inhibition is 100%.

**Q.** What about the MIC [20] of the same molecule?
**A.** Its MIC is 4 µM.

**Q.** And the MIC [21]?
**A.** The MIC was 2 µM.

**Q.** And the Ratio [22]?
**A.** Its Ratio is 2 - 8.

**Q.** What does the source list for `CC[C@H](C)[C@H](NC(=O)[C@H](CCCCN)NC(=O)[C@H](CCC(=O)O)NC(=O)[C@H](CCCCN)NC(=O)[C@H](CO)NC(=O)[C@H](CCCCN)NC(=O)[C@H](CCCNC(=N)N)NC(=O)[C@H](Cc1ccccc1)NC(=O)[C@H](Cc1ccccc1)NC(=O)[C@H](CC(=O)O)NC(=O)CNC(=O)[C@H](CC(C)C)NC(=O)[C@@H](N)CC(C)C)C(=O)NCC(=O)N[C@@H](CCCCN)C(=O)N[C@@H](CCC(=O)O)C(=O)N[C@@H](Cc1ccccc1)C(=O)N[C@@H](CCCCN)C(=O)N[C@@H](CCCNC(=N)N)C(=O)N[C@H](C(=O)N[C@H](C(=O)N[C@@H](CCC(N)=O)C(=O)N[C@@H](CCCNC(=N)N)C(=O)N[C@H](C(=O)N[C@@H](CCCCN)C(=O)N[C@@H](CC(=O)O)C(=O)N[C@@H](Cc1ccccc1)C(=O)N[C@@H](CC(C)C)C(=O)N[C@@H](CCCNC(=N)N)C(=O)N[C@@H](CC(N)=O)C(=O)N[C@@H](CC(C)C)C(=O)N[C@H](C(=O)N1CCC[C@H]1C(=O)N[C@@H](CCCNC(=N)N)C(=O)N[C@H](C(=O)N[C@@H](CCC(=O)O)C(=O)N[C@@H](CO)C(=O)O)[C@@H](C)O)C(C)C)[C@@H](C)CC)C(C)C)[C@@H](C)CC` [CATHELICIDIN]?
**A.** MIC [23]: 2 µM; MIC [24]: 4 µM
